Reference: ChEMBL document CHEMBL1154923 (J Med Chem, 2010)

Target: T1, Rhodopsin kinase GRK7 (Homo sapiens, UniProt Q8WTQ7)
T1 sequence (Q8WTQ7 whole entry): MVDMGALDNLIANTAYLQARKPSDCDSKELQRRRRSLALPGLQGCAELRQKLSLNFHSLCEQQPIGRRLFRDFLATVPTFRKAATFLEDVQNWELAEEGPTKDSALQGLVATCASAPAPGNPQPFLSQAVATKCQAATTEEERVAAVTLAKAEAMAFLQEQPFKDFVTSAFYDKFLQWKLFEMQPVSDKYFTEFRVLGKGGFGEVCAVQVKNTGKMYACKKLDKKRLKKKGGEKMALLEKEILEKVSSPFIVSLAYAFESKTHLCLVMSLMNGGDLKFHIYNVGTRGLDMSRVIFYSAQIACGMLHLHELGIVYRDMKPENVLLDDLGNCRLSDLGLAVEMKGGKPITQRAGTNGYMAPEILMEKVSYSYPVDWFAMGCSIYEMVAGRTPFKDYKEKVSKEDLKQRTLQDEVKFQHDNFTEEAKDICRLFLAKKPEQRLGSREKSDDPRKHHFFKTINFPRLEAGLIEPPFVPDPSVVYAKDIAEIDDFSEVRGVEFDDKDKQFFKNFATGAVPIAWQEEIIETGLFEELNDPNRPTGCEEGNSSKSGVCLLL
Experiment: Inhibition of GRK7-mediated bovine tubulin phosphorylation by scintillation counting

- IC50: 0.18 µM
Structure (SMILES): O=C(N[C@@H]1CNCCC[C@H]1OC(=O)c1cc(O)c(C(=O)c2c(O)cccc2C(=O)O)c(O)c1)c1ccc(O)cc1 [BALANOL]
